The results in this text go back to US20090047221A1 (NIPRI LIMITED, priority 2004, published 2009).

Common to all, as to experiment: MTT assay (anti-proliferative activity)
Format in all cases: cell-based
(In general: Tetrazolium assays rely on reduction of a dye to a coloured formazan, in cell work by metabolically active cells.)

One assay deals with MCF-7. The note with it: 96 h continual exposure, read-out: IC 50 MCF-7.
In another assay the test system is MDA-MB-468. The note with it: 96 h continual exposure, read-out: IC 50 MDA-MB-468.
In another assay the test system is SkMel28. Particulars: 96 h continual exposure, read-out: IC 50 SkMel28.
In the next assay the test system is MalMe3M. The note with it: 96 h continual exposure, read-out: IC 50 MalMe3M.

SMILES strings stand for the structures.

Consider `CC(C)CC(NC(=O)c1ccc2c(c1O)C(=O)OC(C)C2)C(=O)OC(C)(C)C` (mixture of isomers) [ALM-55, Leucine Tert-Butyl Ester Amide], for which the IC50 turned out to be 43.4 µM in the assay with MCF-7, 12.8 µM with MDA-MB-468, 79.2 µM in the assay with SkMel28 and 22.9 µM with MalMe3M.
Taken in the same sequence, the figures for `CCCCC/C=C\C/C=C\C/C=C\CCCCCOC(=O)c1ccc2c(c1O)C(=O)OC(C)C2` (racemic) [ALM-43, γ-Linolenyl Ester] were 2.3 µM, 4.3 µM, 21.3 µM and 23.5 µM.
The corresponding values for `CCCCCCNC(=O)c1ccc2c(c1O)C(=O)OC(C)C2` (racemic) [ALM-49, Hexyl Amide] are 26.2 µM, 3.3 µM, 105 µM and 65.5 µM.
Taken in the same sequence, the figures for `CC1(C)Cc2ccc(C(=O)N[C@@H](Cc3ccccc3)C(=O)O)c(O)c2C(=O)O1` [ALM-74, L-Phenyl Alanine Amide of Compound ALM-73] were 2.21 µM, 1.83 µM, 11.7 µM and 7.8 µM.
